Assay results from US20260286356A1, “NUCLEIC ACID VACCINE FOR ACTIVATING NKG2C+ NATURAL KILLER CELLS” (priority 2023, published 2026).

Experiments:
HLA-E = HLA-E (Homo sapiens, UniProt P13747); assay: HLA-E surface stabilization assay with RMA-S/HLA-E cells; assay type: cell-based; settings: RMA-S/HLA-E cells incubated with 30 μM peptide, anti-HLA-E antibody
Method: Assessment of peptide-HLA-E binding via HLA-E surface stabilization assay with RMA-S/HLA-E cells incubated with 30 μM peptide. HLA-E expression is detected with an anti-HLA-E antibody.
To do so, various sequence variants were assessed for their ability to stabilize surface-expressed HLA-E on RMA-S/HLA-E cells, a TAP-deficient mouse tumor cell line engineered to express HLA-E and human β2M (FIG. 3).

NKG2A+/NKG2C− NK cells = assay: NK cell stimulation assay with peptide-loaded HLA-E expressing target cells, NKG2A+ cells; assay type: cell-based, human; settings: NK cell degranulation and IFN-g, TNF and CCL3 production; compared to LIL, LFL and PQS controls
Method: (§1) FIG. 4: NK cell stimulation assays. Assessment of effects of peptides on NK cell activity through incubation of NK cells, peptides, and a) K562/HLA-E or b) RMA-S/HLA-E target cells. Peptides were derived from the human or CMV proteomes or are included as positive (LFL, LIL) or negative controls (PQS). Replicates for individual peptides are from different donors, with solid black lines indicating mean values.
(§2) Cell-based activation assays were performed with primary NK cells (FIG. 4). Therein, NK cells were co-incubated with K562 peptide-loaded HLA-E expressing cells, as described previously^14. The K562 human […] cell line is a common tool for the analysis of NK cell cytotoxicity and activation, as said cells facilitate the analysis of both NKG2C-mediated activation and NKG2A-mediated inhibition. The PQS peptide served as a negative control.
(§3) Peptides that bound and stabilized HLA-E in the cell-based stability experiment (FIG. 3) were selected and assessed regarding their effect on NKG2A+/NKG2C− or NKG2A−/NKG2C+ NK cell activity. The effect was quantified by the ability to induce NK cell degranulation and IFN-g, TNF and CCL3 production, compared to […] (“LIL”; SEQ ID NO: 4) and […] (“LFL”; SEQ ID NO: 2) peptides (class I MHC-derived) as positive control, and […] (“PQS”; (SEQ ID NO: 53) as negative control peptide (FIG. 4). NKG2A/NKG2C NK cells served as an internal control. NKG2A/NKG2C NK cells have been shown previously to not be affected by peptide-HLA-E complexes.

NKG2A−/NKG2C+ NK cells = assay: NK cell stimulation assay with peptide-loaded HLA-E expressing target cells, NKG2C+ cells; assay type: cell-based, human; settings: NK cell degranulation and IFN-g, TNF and CCL3 production; compared to LIL, LFL and PQS controls
Method: as §1, §2, §3

Sequence of HLA-E (P13747 22-358): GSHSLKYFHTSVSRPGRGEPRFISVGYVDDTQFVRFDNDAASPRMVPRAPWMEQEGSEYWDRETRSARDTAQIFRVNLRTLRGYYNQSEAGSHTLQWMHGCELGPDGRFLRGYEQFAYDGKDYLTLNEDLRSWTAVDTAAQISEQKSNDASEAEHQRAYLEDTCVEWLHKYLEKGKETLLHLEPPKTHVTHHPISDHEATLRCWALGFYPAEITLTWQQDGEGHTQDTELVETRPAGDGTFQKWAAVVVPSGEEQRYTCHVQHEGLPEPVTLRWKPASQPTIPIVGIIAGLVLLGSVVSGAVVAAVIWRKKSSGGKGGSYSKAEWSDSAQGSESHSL
Sequence of HLA-E (P61769 21-119, further chain): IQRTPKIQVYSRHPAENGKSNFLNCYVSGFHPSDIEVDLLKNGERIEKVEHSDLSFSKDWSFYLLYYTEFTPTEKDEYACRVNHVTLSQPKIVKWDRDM

Sequence	stabilization of HLA-E surface expression (peptide-HLA-E binding) (HLA-E)	inhibitory effect on NKG2A+ cells (NKG2A+/NKG2C− NK cells)	activating effect on NKG2C+ cells (NKG2A−/NKG2C+ NK cells)
FLPNRSLLF	strong stabilization of HLA-E	moderate inhibitory effects	strong activating effects
ILTDRSLWL	strong stabilization of HLA-E	moderate inhibitory effects	strong activating effects
NMPARTVLF	strong stabilization of HLA-E	strong inhibitory effect	strong activating effect
QMPSRSLLF	strong stabilization of HLA-E	moderate inhibitory effects	strong activating effects
RMPPRSVLL	–	strong inhibitory effect	strong activating effect
TAPARTMFL	strong stabilization of HLA-E	–	–
TLPERTLYL	strong stabilization of HLA-E	strong inhibitory effect	strong activating effect
TLPKRGLFL	strong stabilization of HLA-E	moderate inhibitory effects	strong activating effects
VLPHRTQFL	strong HLA-E binding	strong inhibitory effect	strong activating effect
VMADKSIFY [OR5D14, reference compound]	no stabilizing effects	–	–
VMGDRSVLY [EMC1, reference compound]	no stabilizing effects	–	–
VMPGRTLCF	strong stabilization of HLA-E	strong inhibitory effect	strong activating effect
VMPPRTLLL	strong stabilization of HLA-E	strong inhibitory effect	strong activating effect
WNRLFPPLR [UBAC2275-279, reference compound]	no stabilizing effects	–	–
